Source: PMC3152678 (Bioorganic & medicinal chemistry, 2011)

How the values were obtained:
LuxR = LuxR (Aliivibrio fischeri, UniProt P35327); experiment: LuxR antagonism assay in V. fischeri ESI 114; assay type: cell-based, Vibrio fischeri
LasR [1] = target: T1, LasR (Pseudomonas aeruginosa, UniProt P25084); experiment: LasR reporter gene antagonism assay in E. coli DH5α; assay type: cell-based; settings: E. coli reporter strain
TraR [2] = target: T2, TraR (Agrobacterium tumefaciens, UniProt P33905); experiment: TraR antagonism assay in A. tumefaciens WCF; assay type: cell-based; settings: 10 μM, in the presence of OOHL
T2 sequence (P33905 whole entry): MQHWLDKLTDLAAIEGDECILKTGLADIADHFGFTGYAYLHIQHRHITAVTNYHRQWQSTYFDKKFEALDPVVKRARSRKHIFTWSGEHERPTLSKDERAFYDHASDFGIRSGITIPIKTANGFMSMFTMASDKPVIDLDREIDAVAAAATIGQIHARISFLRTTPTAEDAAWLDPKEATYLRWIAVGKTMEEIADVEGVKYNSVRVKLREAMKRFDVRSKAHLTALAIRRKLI

LasR [3] = target: T1, LasR; experiment: LasR reporter gene agonism assay in E. coli DH5α; assay type: cell-based; settings: E. coli LasR reporter strain
LasR [4] = target: T1, LasR; experiment: LasR reporter gene agonism assay in P. aeruginosa PA01 MW1; assay type: cell-based; settings: P. aeruginosa LasR reporter strain
TraR [5] = target: T2, TraR; assay type: cell-based; settings: dose response
[6] = assay type: physicochemical; settings: Luria-Bertani medium, 37 °C; pseudo first-order
immune response = settings: mice; cited from earlier work
[7] = over the course of a week; cited from earlier work

T1 sequence (P25084 whole entry): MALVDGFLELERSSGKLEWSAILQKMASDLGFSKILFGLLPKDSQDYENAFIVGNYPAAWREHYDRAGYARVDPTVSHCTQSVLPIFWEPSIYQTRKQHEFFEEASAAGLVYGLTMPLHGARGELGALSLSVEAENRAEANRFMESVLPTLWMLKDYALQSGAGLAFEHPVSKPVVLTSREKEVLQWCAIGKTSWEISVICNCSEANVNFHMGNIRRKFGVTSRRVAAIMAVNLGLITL
Sequence of LuxR (P35327 whole entry): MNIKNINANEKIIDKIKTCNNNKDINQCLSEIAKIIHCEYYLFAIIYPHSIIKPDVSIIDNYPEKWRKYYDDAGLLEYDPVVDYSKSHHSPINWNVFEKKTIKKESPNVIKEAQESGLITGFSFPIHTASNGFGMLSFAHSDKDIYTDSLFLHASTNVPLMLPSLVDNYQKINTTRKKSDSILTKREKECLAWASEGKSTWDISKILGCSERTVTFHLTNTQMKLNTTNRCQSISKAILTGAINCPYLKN

Structure (SMILES): CCCCCCCC(=O)N[C@H]1CCSC1=O [Compound 22, N-octanoyl L-thiolactone]
- fold lower concentration than OHHL to antagonize LuxR by 50% (LuxR): 10 fold
- fold higher concentration than OdDHL to antagonize LasR by 50% (LasR [1]): 10 fold

Structure (SMILES): CCCC(=O)N[C@H]1CCSC1=O [Compound 19]
- TraR agonism in the antagonism assay (more than OOHL alone) (TraR [2]): over 70%

Structure (SMILES): CCCC(=O)CC(=O)N[C@H]1CCSC1=O [Compound 12]
- EC50 fold higher / fold less active than OdDHL, E. coli LasR (LasR [3]): ~ 10 fold
- EC50 fold higher / fold less active than OdDHL, P. aeruginosa LasR (LasR [4]): ~ 10 fold

Structure (SMILES): CCCCCC(=O)CC(=O)N[C@H]1CCSC1=O [Compound 18]
- fold less active than OOHL (TraR agonism) (TraR [5]): 100 fold

Structure (SMILES): CCCCCC(=O)N[C@H]1CCSC1=O [Compound 20, N-hexanoyl thiolactone]
- TraR agonism in the antagonism assay (more than OOHL alone) (TraR [2]): over 70%

Structure (SMILES): COc1ccc(CC(=O)N[C@H]2CCSC2=O)cc1 [Compound 29]
- agonistic activity in the TraR antagonism assay relative to OOHL (TraR [2]): 2 ×

Structure (SMILES): CCCCCCCCCC(=O)CC(=O)N[C@H]1CCSC1=O [Compound 15]
- slope of natural log of percent of positive control vs time [6]: −0.01025 ± 0.0004
- times less of an immune response than the native OdDHL (immune response): approximately 40 times

Structure (SMILES): COc1ccc(CC(=O)NC2CCSC2=O)cc1 (stereo not shown) [Compound 28]
- TraR agonism in the antagonism assay (more than OOHL alone) (TraR [2]): 24%

Structure (SMILES): O=C(Cc1ccc(Br)cc1)N[C@H]1CCSC1=O [Compound 31]
- TraR agonism in the antagonism assay (more than OOHL alone) (TraR [2]): 60%

Structure (SMILES): CCCCCCCCCC(=O)CC(=O)N[C@H]1CCOC1=O [OdDHL, N-(3-oxo)-dodecanoyl HL, reference compound]
- slope of natural log of percent of positive control vs time [6]: −0.01399 ± 0.0006
- racemization of the chiral center [7]: less than 5%

Structure (SMILES): CCCCCCCCCCCC(=O)N[C@H]1CCSC1=O [Compound 23, N-dodecanoyl thiolactone]
- EC50 fold higher / fold less active than OdDHL, E. coli LasR (LasR [3]): ~ 100 fold
- EC50 fold higher / fold less active than OdDHL, P. aeruginosa LasR (LasR [4]): ~ 10 fold
